Results on one compound are retold here after US20120129811A1, “TRICYCLIC INHIBITORS OF PRO-MATRIX METALLOPROTEINASE ACTIVATION” (priority 2010, published 2012).

The subject of the assay is rats with SCW-induced arthritis. Description: Efficacy in rats with SCW-induced arthritis (ankle thickness, clinical scores). The class given is in vivo, rat. Conditions: for Ankle thickness, Day 18 / Clinical Scores (0-8), Day 18: Day 18 (start of treatment); for Ankle thickness, Day 18 / Ankle thickness, Day 26 / Clinical Scores (0-8), Day 18 / Clinical Scores (0-8), Day 26: mean n=5; for % Inh (disease associated increase in ankle thickness): Day 26. From the text: A polyarthritis can be induced in female Lewis rats following i.p. administration of streptococcal cell wall (SCW) proteoglycan-polysaccharides (PG-PS) (J Exp Med 1977; 146:1585-1602). The model has an acute phase (days 3-7) that is complement and neutrophil-dependent and that resolves. A chronic erosive phase begins at about day ten and is dependent on the development of specific T cell immunity to the PG-GS, which resists digestion and remains present in synovial macrophages for months. Like rheumatoid arthritis, SCW-induced arthritis is reduced by TNF inhibitors, and the dependence of SCW-induced arthritis on macrophages (Rheumatology; 2001; 40:978-987) and the strong association of rheumatoid arthritis severity with synovial-tissue macrophage counts (Ann Rheum Dis; 2005; 64:834-838) makes SCW-arthritis an attractive model for testing potential therapeutic agents. SCW PG-PS 10S (Beckton Dickinson Cat#210866) suspended in saline was vortexed for 30 seconds and sonicated for 3 min with a probe type sonicator prior to injection. Female Lewis (LEW/N) rats, 5-6 weeks of age (80-100 g) were injected (i.p.) with SCW PG-PS (15 μg of rhamnose/gram BW) in the lower left quadrant of the abdomen using a 1 mL syringe fitted with a 23-gauge needle. Control (disease-free) rats were treated in a similar manner with sterile saline. Control rats were sacrificed on day 5 and groups of SCW-injected rats were sacrificed on day 5 when acute inflammation was maximal or on day 18 when chronic inflammation was established.
To induce arthritis, Female Lewis (LEW/N) rats, 5-6 weeks of age (80-100 g) were injected (i.p.) with SCW PG-PS as described above. Eighteen days later, arthritis was well established. Calipers were used to measure the width (anterior to posterior surface) of the left and right hind ankles of each rat. Each ankle was measured 3 times and averaged, and treatment groups were randomized based on ankle thickness (Table 6). Commencing on day 18, randomized groups of arthritic rats (n=5 rats/group) received vehicle or 5, 20, or 50 mg/kg Compound-α BID by oral gavage. Vehicle consisted of an aqueous mixture containing 2% (v:v) N-methylpyrrolidone, 5% (v:v) glycerine, and 20% (w:v) captisol. Treatment continued daily through the morning of day 26.
Hind paw inflammation clinical scores were assigned based on swelling and erythema.

[1] abbreviates: 5 mg/kg BID oral gavage Day 18-26.
Where [2] appears, read: 20 mg/kg BID oral gavage Day 18-26.
The mark [3] stands for this setting: 50 mg/kg BID oral gavage Day 18-26.

With `Cc1nc(C)c(-c2csc(Nc3cc(S(N)(=O)=O)ccc3OC(C)C)n2)s1` [Compound α, 3-(2′,4′-Dimethyl-[4,5′]bithiazolyl-2-ylamino)-4-isopropoxy-benzenesulfonamide.HBr], under setting [1], the “Day 26 Δ mm (vs. group 1)” value is listed as 3.67 mm; the “Ankle thickness, Day 18” value is reported as 11.79 mm; the “% Inh (disease associated increase in ankle thickness)” value was 27%; the “Ankle thickness, Day 26” value is on record as 10.93 mm. Under “5 mg/kg Day 18-26”, the “Clinical Scores, Δ Day 18 vs. day 26” value was −1.20; the “Clinical Scores (0-8), Day 18” value was 8.00; the “Clinical Scores (0-8), Day 26” value was found to be 6.80. Under setting [2], the “Day 26 Δ mm (vs. group 1)” value stood at 3.15 mm; the “Ankle thickness, Day 18” value is listed as 11.76 mm; the “% Inh (disease associated increase in ankle thickness)” value amounted to 37%; the “Ankle thickness, Day 26” value was 10.42 mm. In addition, for the setting “20 mg/kg Day 18-26”, the “Clinical Scores, Δ Day 18 vs. day 26” value was −2.80; the “Clinical Scores (0-8), Day 18” value worked out at 8.00; the “Clinical Scores (0-8), Day 26” value was 5.20. In addition, under setting [3], the “Day 26 Δ mm (vs. group 1)” value came to 2.73 mm; the “Ankle thickness, Day 18” value is 11.68 mm; the “% Inh (disease associated increase in ankle thickness)” value was 46%; the “Ankle thickness, Day 26” value stood at 9.99 mm. For the same compound, for the setting “50 mg/kg Day 18-26”, the “Clinical Scores, Δ Day 18 vs. day 26” value is −3.40; the “Clinical Scores (0-8), Day 18” value stood at 7.80; the “Clinical Scores (0-8), Day 26” value is listed as 4.40. Besides, where the note is “5, 20, 50 mg/kg BID, Day 18-26”, the “effect on ankle thickness measurements” value is “dose-dependent decrease in ankle thickness measurements” and the “effect on clinical score measurements” value is listed as “dose dependent decrease in clinical score measurements”.
